Key:
Echinochloa crus-galli = test: Greenhouse post-emergence herbicidal activity on Echinochloa crus-galli; format: in vivo; conditions: 0.654 g ai/ha, scale 0-100, AMS + NIS added
Source text: (§1) For the post-emergence treatment, the test plants were first grown to 3 to 4 inch (7.6 to 10.2 cm) tall, and only then treated. Here, the herbicidal compositions were suspended or emulsified in water as distribution medium and sprayed using finely distributing nozzles.
(§2) The herbicide compounds applied in the examples were used as commercially available formulations which have been diluted with deionized water to a suitable concentration.
(§3) Carfentrazone (commercial product name: Aim) was used as an emulsifiable concentrate having an active ingredient concentration of 240 g/l. Glufosinate (commercial product name: Liberty) was used as an aqueous soluble liquid of glufosinate ammonium having an active ingredient concentration of 280 g/l. Adjuvants of ammonium sulfate (AMS) and non-ionic surfactant (NIS) were added in all treatments. AMS and NIS were AMS Liquid and Induce at rates of 1680 g/ha and 0.25% (v/v), respectively.
(§4) The test period extended over 28 days after treatment (DAT). During this time, the plants were tended and their response to the individual treatments was evaluated.
(§5) The evaluation for the damage caused by the chemical compositions was carried out using a scale from 0 to 100%, compared to the untreated control plants. Here, 0 means no damage and 100 means complete destruction of the plants.
(§6) The plants used in the greenhouse experiments belonged to the following species:
(§7) 22 ff. E=X+Y−(X·Y/100) • where X=effect in percent using carfentrazone at an application rate a; • Y=effect in percent using glufosinate at application rate b; • E=expected effect (in %) of carfentrazone plus glufosinate at application rates a+b.
(§8) The value E corresponds to the effect (plant damage or injury) which is to be expected if the activity of the individual compounds is just additive. If the observed effect is higher than the value E calculated according to Colby, a synergistic effect is present.

Chenopodium album = test: Greenhouse post-emergence herbicidal activity on Chenopodium album; format: in vivo; conditions: 0.654 g ai/ha
Source text: as §1, §2, §3, §4, §5, §6, §7, §8

## CCOC(=O)C(Cl)Cc1cc(-n2nc(C)n(C(F)F)c2=O)c(F)cc1Cl (stereo not drawn) [Carfentrazone, carfentrazone-ethyl]
Echinochloa crus-galli; 7 DAT
  Solo Carfentrazone % activity: 30%
Echinochloa crus-galli; 14 DAT
  Solo Carfentrazone % activity: 18%
Echinochloa crus-galli; 21 DAT
  Solo Carfentrazone % activity: 25%
Chenopodium album; 7 DAT, scale 0 (no damage) to 100 (complete destruction), AMS + NIS added
  Solo Carfentrazone % activity: 30%
Chenopodium album; 14 DAT, scale 0-100, AMS + NIS added
  Solo Carfentrazone % activity: 30%
Chenopodium album; 21 DAT, scale 0-100, AMS + NIS added
  Solo Carfentrazone % activity: 35%
